From patent US20100210554A1, “THERAPEUTIC USES OF GASTRIN- 1 AND G- PEN-GRGDSPCA” (priority 2007, published 2010)

Columns and labels:
[1] = tested on: HIV-1IIIB; assay: HIV-1 antiviral assay in CEM-SS cells (MTS readout)
[2] = tested on: HCMV strain AD169; assay: HCMV plaque formation assay in MRC-5 cells; settings: for inhibition of HCMV plaque formation as compared to the virus control experiment: 10 micrograms per ml, 7-10 days
[3] = tested on: hepatitis B virus (HBV) ayw strain; assay: HBV experimental assay system (HepG2-2.2.15, TaqMan PCR of secreted HBV DNA); type: cell-based; settings: 10 micrograms per ml, six days
[4] = tested on: Primary Human endothelial cells (HUVEC); assay: Endothelial cell migration assay; settings: 10 micrograms per ml, 22 hours
Method: Primary Human endothelial cells (HUVEC) were seeded in insert chambers with 3 micrometer pore size of multi-transwell plate for 6 hours at 37° C. in Endothelial Cell Basal Medium (EBM) supplemented with 0.1% bovine serum albumin. Thereafter, designated concentration of testing peptides—10 micrograms per ml—was added in duplicate wells. The endothelia were allowed to migrate for 22 hours at 37° C., then, migrated cells were fixed and stained with Hoechst 33342 dye. Images of 3 fields per insert were taken and the number of migrated cells per field were quantified using the ImageProPlus software. Data were analyzed for the average number of the migrated cells and standard deviation of six data points for each treatment condition. […] Statistic p values were computed using the Student's t-test.

[5] = tested on: HUVEC; assay: Endothelial tube formation assay; settings: 10 micrograms per ml, 20 hours, combination peptide 1:peptide 2 0.95 mole:1.05 mole
Method: The endothelial tube formation assay is based on the ability of endothelial cells to form three-dimensional capillary-like tubular structures when cultured on a gel of basement membrane extract. […] Pre-labeled HUVEC with Calcein AM were seeded in a 96-well culture plate coated with extracellular metrix (Chemicon international Cat. ECM625) and treated with test peptides—10 micrograms per ml—in full growth medium. Positive control was vehicle only. The endothelial cells were allowed to form tubes foe 20 hours and were then examined under an inverted fluorescent microscope. Duplicate wells for each treatment were photographed and quantitatevily analyzed for an average tubule length using image analysis software ImageProPlus. Raw data were expressed as average tubule lengths in pixels ±standard deviation. Statistic p values were computed using the Student's t-test.

[6] = tested on: IFNγ spleen cells; assay: Th1/Th2 cytokine profiling assay: IFNγ; type: cell-based, Balb/c mice; settings: 10 micrograms per ml; Ovalbumin restimulation; 72 hours
Source text: (§1) The Balb/c mice (originated in 1923, it is a popular strain and is used in many different research disciplines. Also classified as an inbred from the production of 20 or more successive brother-sister matings, the Balb/c mouse is albino and small in size) were immunized on Days 1, 15, and 29 with Ovalbumin (Ovalbumin is the main protein found in egg white, commonly used to stimulate an immunological reaction in test animals) in PBS (5 micrograms/injection). On day 50, spleens of the mice were harvested (3 weeks after last boost with Ovalbumin). […] Thereafter, additional Ovalbumin was added to the cells at 10 micrograms/ml for in vitro restimulation of the cells. 72 hours later, cell supernatants were harvested and assayed using the Becton Dickinson Mouse Th1/Th2 Cytokine CBA Kit. This kit can be used to measure Interleukin-2 (IL-2), Interleukin-4 (IL-4),
(§2) Interleukin-5 (IL-5), Interferon-γ (IFN-γ), and Tumor Necrosis Factor-α (TNF-α) protein levels in a single sample. The kit performance has been optimized for analysis of physiologically relevant concentrations (pg/ml levels) of specific cytokine proteins in tissue culture supernatants and serum samples.

[7] = tested on: IL-2 spleen cells; assay: Th1/Th2 cytokine profiling assay: IL-2; type: cell-based, Balb/c mice; settings: 10 micrograms per ml; Ovalbumin restimulation; 72 hours
Source text: as §1, §2

[8] = tested on: IL-4 spleen cells; assay: Th1/Th2 cytokine profiling assay: IL-4; type: cell-based, Balb/c mice; settings: 10 micrograms per ml; Ovalbumin restimulation; 72 hours
Source text: as §1, §2

[9] = tested on: IL-5 spleen cells; assay: Th1/Th2 cytokine profiling assay: IL-5; type: cell-based, Balb/c mice; settings: 10 micrograms per ml; Ovalbumin restimulation; 72 hours
Source text: as §1, §2

[10] = tested on: TNF-a spleen cells; assay: Th1/Th2 cytokine profiling assay: TNF-a; type: cell-based, Balb/c mice; settings: 10 micrograms per ml; Ovalbumin restimulation; 72 hours
Source text: as §1, §2

Row | Molecule | antiviral activity of positive control compounds (HIV-1) [1] | antiviral activity of positive control compound (HCMV) ([2]; positive control) | inhibition of HBV replication as compared to the virus control infection [3] [%] | inhibition of HCMV plaque formation as compared to the virus control experiment [2] | inhibition of the migration of human endothelial cells [4] [%] | inhibition of the tube formation of endothelial cells [5] [%] | IFNγ spleen cells; TH1 response (% of control) [6] | IL-2 spleen cells (% of control) [7] | IL-4 spleen cells; TH2 response (% of control) [8] | IL-5 spleen cells; TH2 response (% of control) [9] | TNF-a spleen cells; TH1 response (% of control) [10]
1 | CC(C)(C)NC(=O)[C@@H]1CN(Cc2cccnc2)CCN1C[C@@H](O)C[C@@H](Cc1ccccc1)C(=O)N[C@H]1c2ccccc2C[C@H]1O [indinavir] | expected levels of antiviral activity |  |  |  |  |  |  |  |  |  | 
2 | Nc1nc(O)c2ncn(COC(CO)CO)c2n1 [Ganciclovir, reference compound] |  | expected levels of antiviral activity |  |  |  |  |  |  |  |  | 
3 | Gly-Pen-Gly-Arg-Gly-Asp-Ser-Pro-Cys-Ala-OH [peptide 2] |  |  | 23.9 | did not inhibit | 51 | 22 | 77.3 % of control | 110.7 % of control | 117.2 % of control | 55.0 % of control | 117.6 % of control
4 | Pyr-Gly-Pro-Trp-Leu-Glu-Glu-Glu-Glu-Glu-Ala-Tyr-Gly-Trp-Met-Asp-Phe-NH2 [peptide 1] |  |  | 17.4 | did not inhibit | 30 | 35 | 52.4 % of control | 101.6 % of control | 61.5 % of control | 61.2 % of control | 106.3 % of control
5 | Cc1cn([C@H]2C[C@H](N=[N+]=[N-])[C@@H](CO)O2)c(=O)[nH]c1=O [AZT] | expected levels of antiviral activity |  |  |  |  |  |  |  |  |  | 
